# Test results from US7122335B1, “Compounds and methods to enhance rAAV transduction” (priority 1999, dated 2006).
# “And” between values parts separate entries of the source, which are not always exact repeats. Identical values can stand only once. Peptide text beside a SMILES is read from it. * marks the point of attachment. Cbz = O=C(OCc1ccccc1)*
# Legend:
# mouse lung = assay: rAAV (AV.LacZ) gene transfer in mouse lung in vivo; design: species or system BALB/c mice
# Experimental: FIGS. 17A–F. Persistent induction of rAAV mediated gene transfer in mouse conducting airways by proteasome inhibitors. FIGS. 17A–C) Recombinant AV.Alkphos (5×10^10 particles) was administered to mouse lung either as virus alone in PBS or virus in combination with 40 μM LLnL in PBS. Virus was directly instilled into […] mice trachea with a 30 G needle in a total volume of 30 μl. To insure the spread of the virus in mouse lung, 50 μl air was pumped into lung through the same syringe immediately after virus was administered. Ninety days after infection, lungs were harvested intact and fixed in 4% paraformaldehyde followed by cryosection. AAV-mediated transgene expression was evaluated by 10 μm tissue sections staining for heat-resistant alkaline phosphatase. FIG. 17A: infection with AAV alone; FIGS. 17B and 17C: infection with AAV supplemented with 40 µM of LLnL. FIGS. 17D–F) 6 week old BALB/c mouse (N=3 animals in each group) were infected with 5×10^10 DNA particles of AV.LacZ in the absence or presence of 400 μM Z-LLL by nasal instillation. Representative examples of histochemical staining for LacZ expression in large bronchioles 150 days post-infection are shown in FIGS. 17D and 17E. The right and left sides of each panel represent Nomarski and bright field photomicrographs, respectively. The 100 μm scale bar applies to all photomicrographs. The mean (+/−SEM) percentage of LacZ expressing epithelial cells at various levels of the airway was quantitated using the morphometric procedures outlined in the methods, and the analysis represents results from three independent animals for each group (FIG. 17F).
# In vivo studies in mice. Animal studies were performed in accordance with the institutional guidelines of the University of Iowa To determine the effect of the proteasome inhibitor on AAV mediated gene transfer in mouse lung, 6 week-old BALB/c mice were lightly anesthetized using a methoxyflurane chamber. AV.LacZ (5×10^10 particles) was administered alone or with 400 μM Z-LLL in a 10 μl instillation by nasal aspiration as described by Walters et al. (2000). To prevent unforeseen toxicity of DMSO solvent, the proteasome inhibitor Z-LLL was dissolved in ethanol as a 40 mM stock solution and was included in the viral inoculum at 1% final concentration. Viral infection controls in the absence of Z-LLL also contained a 1% final concentration of ethanol. […] The trachea was intubated and instilled at 10 cm of water pressure with the following solutions in order: PBS, 0.5% glutaraldehyde, 1 mM MgCl2/PBS, and finally X-gal staining reagent for an overnight incubation at room temperature. The X-gal stained mouse lungs were then post fixed in 10% neutral buffered formalin for 48 hours at room temperature and cryopreserved in serial 10%, 20% and 30% sucrose/PBS solutions. Lungs (N=3 for each condition) were embedded in OCT (optimal cutting temperature; Baxter, Warrendale, Pa.) and 15 μm serially sections were analyzed for gene transfer by calculating the percentage of positive cells in the airway epithelium. The diameter of the airway was recorded for classification (>360 μm, 260–350 μm, 160–250 μm, <150 μm) of results following morphometric analysis. Greater than 150 airway cross-sections were quantified for each experimental condition.
# [1] = test system: polarized human bronchial epithelial cells; assay type: cell-based
# Experimental: FIGS. 7A and 7B. Proteasome inhibitors differentially augment rAAV transduction from the apical or basolateral surfaces of airway epithelia. The efficiency and time course of rAAV transduction were evaluated in polarized airway epithelial cultures following infection with rAV.GFPori3 (MOI=10,000 particles/cell) in the presence or absence of 40 μM LLnL. Transgene expression was monitored by indirect fluorescence microscopy at the indicted time points by quantifying the mean number of GFP positive cells per 10× field (mean +/−SEM of 3 independent samples for each time point). The effect of LLnL treatment was compared between matched sets of tissue samples at each time point following infection from the apical (FIG. 7A) or basolateral (FIG. 7B) surfaces. The photomicrographs on the right side of each figure illustrate representative 20× fields for the 3 and 22 day post-infection time points.
# FIG. 9. Effects of different agents on AAV transduction from the basal surface of polarized bronchial epithelia. Fully differentiated human bronchial airway epithelia were treated with the indicated agents at the time of AAV infection (MOI=10,000 particles/cell) from the basolateral surface. […] Since most of the tested agents (except for hydroxyurea) were dissolved in DMSO, a vehicle control of 1% (vol/vol) DMSO was also performed to exclude the possibility of a non-specific effect. GFP expression was monitored at 48 hours post-infection by counting the number of GFP positive cells per 10 random 10× fields in the culture dishes. The data represent the mean +/−SEM of three independent infections for each tested chemical.
# FIG. 10. The proteasome inhibitor LLnL preferentially induces AAV transduction in ciliated cells. The cell types transduced by AAV were examined by alkaline phosphatase staining 3 days following basolateral infection of polarized epithelial cultures with AV.Alkphos infection (MOI=10,000 particles/cell) in the presence of or absence of 40 μM LLnL. […] 8 μm paraffin sections were used to histologically quantify the types of cells transduced. Three classifications were used, ciliated cells (with alkphos expression localized to the apical membrane and cilia), basal cells residing in the lower half of the epithelium with no contact with the lumen, and non-ciliated, columnar cells. Panel C (without LLnL) and D (with LLnL) show representative neutral red counter-stained cross-sections for each condition. The numbers of alkphos stained cells/2000 epithelial cells for the various cell types transduced by AAV are presented in panel E (mean +/−SEM from three independent Millicell insert samples).
# FIGS. 11A and 11B. Optimization of LLnL-enhanced transduction in polarized bronchial epithelia. Differentiated transwell cultures were infected with AV.GFP3ori (10,000 particles/cell) from either the basolateral (FIG. 11A) or the apical (FIG. 11B) surface with the indicated treatments involving LLnL and/or EGTA. All infections were carried out for 24 hours and GFP transgene expression was monitored by indirect fluorescent microscopy at the indicated times. Data represent the mean (+/−SEM, N=6) for each experimental condition. Experiments were performed in triplicate on transwells derived from samples obtained from two different patients. […]
Molecule,"airway cells transduced by AV.LacZ, average (mouse lung; 400 μM Z-LLL intranasal with 5×10^10 particles, 150 days)","airway cells in the smaller bronchioles (<150 mm) expressing β-galactosidase (mouse lung; 400 μM Z-LLL, 150 days) [%]","transduction of lung, in words (mouse lung; 400 μM Z-LLL, 150 days)","transduction efficiency in larger bronchioles (>350 mm), mean % of airway epithelium (mouse lung; 400 μM Z-LLL, 150 days post-infection)",transgene expression (X-gal staining) in lung (mouse lung; 3 and 10 days post infection),time of peak augmentation in AAV transduction ([1]; LLnL and rAAV co-administered to the mucosal surface) [days post-infection],"maximal level of transgene expression relative to basal infection ([1]; apical infection with LLnL, by 30 days)","enhancement in rAAV transduction from the basolateral surface ([1]; basolateral (serosal) infection MOI 10,000, agent at time of infection, GFP at 48 hours/2 days, camptothecin 0.1 μM, etoposide 10 μM, hydroxyurea 40 mM, genistein 50 μM, LLnL 40 μM)","effect of repeated LLnL administration on transgene expression ([1]; basolateral infection, LLnL once every three days)",toxicity to cultured airway cells ([1]; continual exposure to 40 μM LLnL in basal medium after basolateral infection),time of transient peak in gene expression ([1]; rAAV infection from the serosal surface in the presence of LLnL) [hours post-infection],"AV.Alkphos transduction ([1]; serosal application of AV.Alkphos, 40 μM LLnL, 3 days)"
"CC(C)C[C@@H](C=O)NC(=O)[C@H](CC(C)C)NC(=O)[C@H](CC(C)C)NC(=O)OCc1ccccc1 [Z-LLL, N-carbobenzoxyl-L-leucinyl-L-leucinyl-L-leucinal] (Cbz-Leu-Leu-Leu-aldehyde)",about 5.88%,1.37±0.41,significant transduction was achieved,10.36±1.63% and 10.36+/−1.63%,no detectable transgene expression,,,,,,,
N-acetyl-L-leucinyl-L-leucinal-L-norleucinal [LLnL],,,,,,22,one eighth,greater than 200 fold,increased length of peak transgene expression,toxic to cells and ablated transgene expression by 10 days,72,dramatic increase in AV.Alkphos transduction
